# Reference: ChEMBL document CHEMBL4428111, “Antiplasmodial activity of alkyl-substituted 1,2-dioxetanes against Plasmodium falciparum” (Bioorg Med Chem Lett, 2016)
# What was measured:
# [1] = system: Erythrocyte; assay: Hemolytic activity against human RBC assessed as reduction in hemoglobin release after 24 hrs by spectrophotometric method; type: ADME, cell-based
# [2] = system: Plasmodium falciparum; assay: Antiplasmodial activity against chloroquine-resistant/mefloquine-sensitive Plasmodium falciparum W2 schizonts infected in human erythrocytes assessed as inhibition of parasite invasion at 10^-10 mol/L after 24 hrs by Diff-Quick staining based microscopic analysis relative to control; type: functional; conditions: W2, 24 h
# [3] = system: Plasmodium falciparum; assay: Antiplasmodial activity against chloroquine-resistant/mefloquine-sensitive Plasmodium falciparum W2 schizonts infected in human erythrocytes assessed as inhibition of parasite invasion at 10^-11 mol/L after 24 hrs by Diff-Quick staining based microscopic analysis relative to control; type: functional; conditions: W2, 24 h
# [4] = system: Plasmodium falciparum; assay: Antiplasmodial activity against chloroquine-resistant/mefloquine-sensitive Plasmodium falciparum W2 schizonts infected in human erythrocytes assessed as inhibition of parasite invasion after 24 hrs by Diff-Quick staining based microscopic analysis; type: functional, organism-based; conditions: W2, 24 h
# [5] = system: Plasmodium falciparum; assay: Antiplasmodial activity against chloroquine-resistant/mefloquine-sensitive Plasmodium falciparum W2 schizonts infected in human erythrocytes assessed as parasite invasion after 24 hrs by Diff-Quick staining based microscopic analysis (reference value: 15.26 +/- 2.13%); type: functional
# [6] = system: Plasmodium falciparum; assay: Antiplasmodial activity against chloroquine-resistant/mefloquine-sensitive Plasmodium falciparum W2 schizonts infected in human erythrocytes assessed as inhibition of parasite invasion at 10^-12 mol/L after 24 hrs by Diff-Quick staining based microscopic analysis relative to control; type: functional; conditions: W2, 24 h
# [7] = system: Plasmodium falciparum; assay: Antiplasmodial activity against chloroquine-resistant/mefloquine-sensitive Plasmodium falciparum W2 schizonts infected in human erythrocytes assessed as inhibition of parasite invasion after 24 hrs by Diff-Quick staining based microscopic analysis relative to artemisinin; type: functional
# [8] = system: Plasmodium falciparum; assay: Antiplasmodial activity against chloroquine-resistant/mefloquine-sensitive Plasmodium falciparum W2 schizonts infected in human erythrocytes assessed as inhibition of parasite invasion at 10^-6 mol/L after 24 hrs by Diff-Quick staining based microscopic analysis relative to control; type: functional; conditions: W2, 24 h
# [9] = system: Plasmodium falciparum; assay: Antiplasmodial activity against chloroquine-resistant/mefloquine-sensitive Plasmodium falciparum W2 schizonts infected in human erythrocytes assessed as inhibition of parasite invasion at 10^-9 mol/L after 24 hrs by Diff-Quick staining based microscopic analysis relative to control; type: functional; conditions: W2, 24 h
# [10] = system: Plasmodium falciparum; assay: Antiplasmodial activity against chloroquine-resistant/mefloquine-sensitive Plasmodium falciparum W2 schizonts infected in human erythrocytes assessed as inhibition of parasite invasion at 10^-14 mol/L after 24 hrs by Diff-Quick staining based microscopic analysis relative to control; type: functional; conditions: W2, 24 h
# [11] = system: Plasmodium falciparum; assay: Antiplasmodial activity against chloroquine-resistant/mefloquine-sensitive Plasmodium falciparum W2 schizonts infected in human erythrocytes assessed as inhibition of parasite invasion at 10^-8 mol/L after 24 hrs by Diff-Quick staining based microscopic analysis relative to control; type: functional; conditions: W2, 24 h
# [12] = system: Erythrocyte; assay: Hemolytic activity against human RBC assessed as reduction in hemoglobin release at 10^-8 M after 24 hrs by spectrophotometric method relative to control; type: ADME, cell-based; parameters: scale not given: the % may be the effect or the level left; conditions: 0.01 µM
# [13] = Therapeutic index, ratio of MHC for human RBC to MIC for chloroquine-resistant/mefloquine-sensitive Plasmodium falciparum W2 schizonts infected in human erythrocytes; type: toxicity, cell-based; conditions: read-out: TI
# [14] = system: Plasmodium falciparum; assay: Antiplasmodial activity against chloroquine-resistant/mefloquine-sensitive Plasmodium falciparum W2 schizonts infected in human erythrocytes assessed as inhibition of parasite invasion at 10^-5 mol/L after 24 hrs by Diff-Quick staining based microscopic analysis relative to control; type: functional; conditions: W2, 24 h
# [15] = system: Plasmodium falciparum; assay: Antiplasmodial activity against chloroquine-resistant/mefloquine-sensitive Plasmodium falciparum W2 schizonts infected in human erythrocytes assessed as inhibition of parasite invasion at 10^-7 mol/L after 24 hrs by Diff-Quick staining based microscopic analysis relative to control; type: functional; conditions: W2, 24 h
# [16] = system: Plasmodium falciparum; assay: Antiplasmodial activity against chloroquine-resistant/mefloquine-sensitive Plasmodium falciparum W2 schizonts infected in human erythrocytes assessed as inhibition of parasite invasion at 10^-4 mol/L after 24 hrs by Diff-Quick staining based microscopic analysis relative to control; type: functional; conditions: W2, 24 h
SMILES,MHC [1],inhibition at 0.0001 µM [2] [%],inhibition at 10 pM [3] [%],IC50 [4] [nM],Activity [5] [%],inhibition at 1 pM [6] [%],fold change (FC) [7],inhibition at 1 µM [8] [%],inhibition at 0.001 µM [9] [%],inhibition at 10 fM [10] [%],inhibition at 0.01 µM [11] [%],Activity [12] [%],MIC [4] [nM],selectivity ratio [13],inhibition at 10 µM [14] [%],inhibition at 0.1 µM [15] [%],inhibition at 100 µM [16] [%]
C1C2CC3CC1CC(C2)C31OOC12C1CC3CC(C1)CC2C3 (configuration not stated),1 ×10⁻⁶ M,36.2 to 38.8,24.6 to 25.4,0.19,6.01,20.5 to 21.2,105,65.6 to 67,53.4 to 54.4,16.7 to 18.4,64 to 65.8,2,,,,,
CC1(C)OOC1(C)C,1 ×10⁻⁵ M,23.4 to 25.6,,45,9.83,16.7 to 17.4,0.45,74.7 to 79.4,,,35.6 to 36.3,1.4,0.001,1e+07,81 to 84,60.2 to 60.3,
C[C@@H]1CC[C@H]2[C@@H](C)C(=O)O[C@@H]3O[C@@]4(C)CC[C@@H]1[C@]32OO4 [ARTEMISININ],1 ×10⁻⁴ M,43.1 to 48.7,,10 to 20,5.58,38.5 to 40.6,,99 to 100,52.3 to 54,,63.4 to 67.4,1.5,0.001,,,82.2 to 85.4,100
